The values that follow come from patent US20250212880A1, “COMPOSITION FOR COATING PLANT SEED” (priority 2022, published 2025).

Common to all, as to format: in vivo
The test system of test [1] is wheat. Kind of test: Cultivation of wheat from coated seeds under salt stress conditions. Conditions: salt stress (NaCl 4.0 g/L soil), 2 weeks after seeding, seed coating Trp 0.045-9 g and/or allantoin 50 g per tonne of seeds. The procedure:
Wheat seeds (100 g; the variety: Yumechikara) were coated with 800 μL of a coating solution comprising tryptophan, allantoin, polyvinyl alcohol, and a coloring dye in water using a coater (SATEC). Coating was performed using either or both of tryptophan in an amount of 0 g, 0.045 g, 0.45 g, 4.5 g, or 9 g and allantoin in an amount of 0 g or 50 g per tonne of seeds.
Culture soil comprising sodium chloride at 4.0 g/L of the soil was filled into 7.5-cm pots, and the coated wheat seeds were seeded at 1 grain/pot. Cultivation was performed in a glass greenhouse, and inspection was performed 16 days after seeding. The height and the fresh weight of the aboveground part were measured, and the density (the fresh weight of the aboveground part/the height) was determined. The test was repeated 9 times, and the average was determined.
The density of the test groups treated with different amounts of tryptophan and allantoin was indicated as the rate of change (%), relative to the density of the test group (control group) treated with a coating solution not comprising tryptophan or allantoin.

Test [2] relates to Zea mays. Put plainly: Field test of Zea mays (ear yield). Conditions: field cultivation, Belgium; seed coating 0.25 g tryptophan and/or 1000 g allantoin per tonne of seeds. Here is the method:
In the same manner as in Example 1, Zea mays seeds coated with 0.25 g of tryptophan per tonne of seeds, Zea mays seeds coated with 1000 g of allantoin per tonne of seeds, and Zea mays seeds coated with 0.25 g of tryptophan and 1000 g of allantoin per tonne of seeds were prepared. As a control group, seeds without coating were prepared.
• Location: the Wilderen MAR field, the Kingdom of Belgium • Variety: LIKEiT • Date of seeding: Apr. 27, 2020 • Date of harvesting: Oct. 12, 2020
Cultivation was performed in accordance with the conventional fertilization management technique and pest management technique, and the yield was inspected. • Inspection of yield: 120 strains/group; the number of repetitions: 4

In test [3] the test system is wheat. Kind of test: Cultivation of wheat from coated seeds under non-stress conditions. The conditions noted are these: 2 weeks after seeding, seed coating Trp 0.045-9 g and/or allantoin 50 g per tonne of seeds. The procedure: Wheat seeds (100 g, the variety: Yumechikara) were coated with 800 μL of a coating solution comprising tryptophan, allantoin, polyvinyl alcohol, and a coloring dye in water using a coater (SATEC). Coating was performed using either or both of tryptophan in an amount of 0 g, 0.045 g, 0.45 g, 4.5 g, or 9 g and allantoin in an amount of 0 g or 50 g per tonne of seeds.
Culture soil was filled into 12-cm vinyl pots, and the coated wheat seeds were seeded at 4 grains/pot. After germination, a differently grown strain was thinned to retain 3 strains in a pot. Cultivation was performed in a glass greenhouse, and inspection was performed 2 weeks after seeding. The test was repeated 6 times, and the average was determined.
(§1) The measured fresh weight of the aboveground part of plants in groups each treated with different amounts of tryptophan and allantoin was indicated as the rate of change (%), relative to the fresh weight of the aboveground part of plants in the test group (control group) treated with a coating solution not comprising tryptophan or allantoin.

Test [4] has as its system soybean. Kind of test: Cultivation of soybean from coated seeds under salt stress conditions. Conditions: salt stress (NaCl 1.0 g/L soil), 3 weeks after seeding, seed coating Trp 0.045-5 g and/or allantoin 50 g per tonne of seeds. The procedure: Soybean seeds (100 g; the variety: Fukuyutaka) were coated with 800 μL of a coating solution comprising tryptophan, allantoin, polyvinyl alcohol, and a coloring dye in water using a coater (SATEC). Coating was performed using either or both of tryptophan in an amount of 0 g, 0.045 g, 0.225 g, 0.45 g, or 5 g and allantoin in an amount of 0 g or 50 g per tonne of seeds.
Culture soil comprising sodium chloride at 1.0 g/L of the soil was filled into 7.5-cm pots, and the coated soybean seeds were seeded at 1 grain/pot. Cultivation was performed in a glass greenhouse, and inspection was performed 3 weeks after seeding. The dry weight of the underground part was measured. The test was repeated 9 times, and the average was determined.

The test system of test [5] is soybean. Put plainly: Cultivation of soybean from coated seeds under non-stress conditions. The conditions noted are these: 3 weeks after seeding, seed coating Trp 0.225-5 g and/or allantoin 25 g per tonne of seeds. The procedure: Soybean seeds (100 g; the variety: Fukuyutaka) were coated with 800 μL of a coating solution comprising tryptophan, allantoin, polyvinyl alcohol, and a coloring dye in water using a coater (SATEC). Coating was performed using either or both of tryptophan in an amount of 0 g, 0.225 g, 0.45 g, or 5 g and allantoin in an amount of 0 g or 25 g per tonne of seeds.
Culture soil was filled into 12-cm vinyl pots, and the coated soybean seeds were seeded at 4 grains/pot. After germination, a differently grown strain was thinned to retain 3 strains in a pot. Cultivation was performed in a glass greenhouse, and inspection was performed 3 weeks after seeding. The test was repeated 6 times, and the average was determined.
as §1

The subject of test [6] is Zea mays. Put plainly: Cultivation of Zea mays from coated seeds under non-stress conditions. Conditions: dent corn, 3 weeks (21 days) after seeding, seed coating Trp 0.045-0.45 g and/or allantoin 50 or 500 g per tonne of seeds. Here is the method:
Dent corn seeds (100 g; the variety: Snow-dent “Otoha”) were coated with 800 μL of a coating solution comprising tryptophan, allantoin, polyvinyl alcohol, and a coloring dye in water using a coater (SATEC). Coating was performed using either or both of tryptophan in an amount of 0 g, 0.045 g, 0.225 g, or 0.45 g and allantoin in an amount of 0 g, 50 g, or 500 g per tonne of seeds (MT).
Culture soil was filled into 12-cm vinyl pots, and the coated dent corn seeds were seeded at 4 grains/pot. After germination, a differently grown strain was thinned to retain 3 strains in a pot. Cultivation was performed in a glass greenhouse, and inspection was performed 21 days after seeding. The height, the fresh weight of the aboveground part, and the dry weight of the underground part were measured, and the density (the fresh weight of the aboveground part/the height) was determined. […] The test was repeated 6 times, and the average was determined.
The fresh weight of the aboveground part, the density, and the dry weight of the underground part measured for groups each treated with different amounts of tryptophan and allantoin were indicated as the rates of changes (%), relative to the fresh weight of the aboveground part, the density, and the dry weight of the underground part of plants in the test group (control group) treated with a coating solution not comprising tryptophan or allantoin. […]

Consider `NC(=O)NC1NC(=O)NC1=O` (stereo not shown) [allantoin, 5-ureidohydantoin], for which the “rate of change in the density relative to control group” value in test [1] was determined as 3%. Besides, the “ear yield relative to the control group (100%)” value in test [2] stood at 100.4%. Moreover, the entries for the “rate of change in the fresh weight of the aboveground part relative to control group” value in test [3], in test [5] and in test [6] were 1%, 4% and 5%, respectively. Further, the “rate of change in the dry weight of the underground part relative to control group” value in test [4] is listed as 2%.
Turning to `N[C@@H](Cc1c[nH]c2ccccc12)C(=O)O` [tryptophan, L-tryptophan], in test [2], the “ear yield relative to the control group (100%)” value came out at 100.4%.
